In ChEMBL document CHEMBL3217587, “The discovery of N-1 substituted 2-aminobenzimidazoles as zinc-dependent S. aureus biofilm inhibitors” (Medchemcomm, 2012):
pIC50: −log10 of the molar value. Values after ≈ are worked out from the molar mass of the structure shown. Active and inactive are the calls of the source. No cut-off for these calls is given here.

Tests used:
Staphylococcus aureus [1] = experiment: Antimicrobial activity against methicillin-resistant Staphylococcus aureus ATCC BAA-44 after 16 hrs by broth microdilution method; format: functional; settings: ATCC BAA-44, 16 h
Pseudomonas aeruginosa = experiment: Antimicrobial activity against Pseudomonas aeruginosa PA14 after 16 hrs by broth microdilution method; format: functional; settings: PA14, 16 h
Staphylococcus aureus [2] = experiment: Antimicrobial activity against methicillin-resistant Staphylococcus aureus ATCC 700789 after 16 hrs by broth microdilution method; format: functional; settings: ATCC 700789, 16 h
Staphylococcus aureus [3] = experiment: Antimicrobial activity against methicillin-resistant Staphylococcus aureus ATCC BAA-44 assessed as inhibition of biofilm formation after 24 hrs by crystal violet staining-based microscopy; format: functional, organism-based; settings: ATCC BAA-44, 24 h
Staphylococcus aureus [4] = experiment: Antimicrobial activity against methicillin-resistant Staphylococcus aureus ATCC 43300 assessed as inhibition of biofilm formation after 24 hrs by crystal violet staining-based microscopy; format: functional, organism-based; settings: ATCC 43300, 24 h
Staphylococcus aureus [5] = experiment: Antimicrobial activity against methicillin-resistant Staphylococcus aureus ATCC 43300 after 16 hrs by broth microdilution method; format: functional; settings: ATCC 43300, 16 h
Staphylococcus aureus [6] = experiment: Antimicrobial activity against methicillin-resistant Staphylococcus aureus ATCC 33591 after 16 hrs by broth microdilution method; format: functional; settings: ATCC 33591, 16 h
Staphylococcus aureus [7] = experiment: Antibiofilm activity against methicillin-resistant Staphylococcus aureus ATCC 43300 assessed as biofilm dispersal at 20 uM after 24 hrs by crystal violet staining-based microscopy; format: functional, organism-based
Staphylococcus aureus [8] = experiment: Antimicrobial activity against methicillin-susceptible Staphylococcus aureus ATCC 29213 after 16 hrs by broth microdilution method; format: functional; settings: ATCC 29213, 16 h
Staphylococcus aureus [9] = experiment: Antimicrobial activity against methicillin-resistant Staphylococcus aureus ATCC BAA-1685 after 16 hrs by broth microdilution method; format: functional; settings: ATCC BAA-1685, 16 h
Acinetobacter baumannii = experiment: Antimicrobial activity against multidrug-resistant Acinetobacter baumannii ATCC BAA-1605 after 16 hrs by broth microdilution method; format: functional; settings: ATCC BAA-1605, 16 h
Staphylococcus aureus [10] = experiment: Antimicrobial activity against methicillin-resistant Staphylococcus aureus ATCC BAA-1556 after 16 hrs by broth microdilution method; format: functional; settings: ATCC BAA-1556, 16 h
Staphylococcus aureus [11] = experiment: Antimicrobial activity against methicillin-resistant Staphylococcus aureus ATCC BAA-811 after 16 hrs by broth microdilution method; format: functional; settings: ATCC BAA-811, 16 h
Staphylococcus aureus [12] = experiment: Antimicrobial activity against methicillin-resistant Staphylococcus aureus ATCC BAA-1753 after 16 hrs by broth microdilution method; format: functional; settings: ATCC BAA-1753, 16 h
Staphylococcus aureus [13] = experiment: Toxicity in methicillin-resistant Staphylococcus aureus ATCC 43300 assessed as inhibition of planktonic cell growth at IC50 after 2 to 24 hrs by spectrophotometry; format: organism-based
Staphylococcus aureus [14] = experiment: Toxicity in methicillin-resistant Staphylococcus aureus ATCC BAA-44 assessed as inhibition of planktonic cell growth at IC50 after 2 to 24 hrs by spectrophotometry; format: organism-based

Structure (SMILES) | MIC (Staphylococcus aureus [1]) [µg/mL] | MIC (Pseudomonas aeruginosa) [µg/mL] | MIC (Staphylococcus aureus [2]) [µg/mL] | pIC50 (Staphylococcus aureus [3]) | pIC50 (Staphylococcus aureus [4]) | MIC (Staphylococcus aureus [5]) [µg/mL] | MIC (Staphylococcus aureus [6]) [µg/mL] | Activity (Staphylococcus aureus [7]) | MIC (Staphylococcus aureus [8]) [µg/mL] | MIC (Staphylococcus aureus [9]) [µg/mL] | MIC (Acinetobacter baumannii) [µg/mL] | MIC (Staphylococcus aureus [10]) [µg/mL] | MIC (Staphylococcus aureus [11]) [µg/mL] | MIC (Staphylococcus aureus [12]) [µg/mL] | Activity (Staphylococcus aureus [13]) | Activity (Staphylococcus aureus [14])
CCCCCCCCCCCCn1c(N)nc2cc(NC(=O)c3ccc(CCCCC)cc3)ccc21.Cl | > 64 | > 64 | > 64 | < 4.70 | < 4.70 | > 64 | > 64 | inactive | > 64 | > 64 | > 64 | > 64 | > 64 | > 64 |  | 
CCCCCc1ccc(C(=O)Nc2ccc3c(c2)nc(N)n3-c2ccc(CCCCC)cc2)cc1.Cl | > 64 | > 64 | > 64 | < 4.70 | < 4.70 | > 64 | > 64 | inactive | 64 | 64 | > 64 | > 64 | > 64 | 64 |  | 
CCCCCc1ccc(C(=O)Nc2ccc3c(c2)nc(N)n3Cc2ccc(OC)cc2)cc1.Cl | 16 | > 64 | 16 | 4.94 | 5.24 | 16 | 16 | inactive | > 64 | 16 | > 64 | 16 | 16 | > 64 | Non-toxic | Toxic
CCCCCc1ccc(C(=O)Nc2ccc3c(c2)nc(N)n3Cc2ccccc2)cc1.Cl | > 64 | > 64 | > 64 | 5.17 | 5.28 | > 64 | > 64 | inactive | > 64 | > 64 | > 64 | > 64 | > 64 | > 64 | Non-toxic | Non-toxic
CCCCCc1ccc(C(=O)Nc2ccc3[nH]c(N)nc3c2)cc1 | 8 (≈ 24.8 µM) | 16 (≈ 49.6 µM) | 8 (≈ 24.8 µM) | < 4.70 | 4.86 | 16 (≈ 49.6 µM) | 16 (≈ 49.6 µM) |  | 16 (≈ 49.6 µM) | 16 (≈ 49.6 µM) | 16 (≈ 49.6 µM) | 8 (≈ 24.8 µM) | 8 (≈ 24.8 µM) | 8 (≈ 24.8 µM) | Toxic | 
CCCCCc1ccc(C(=O)Nc2ccc3c(c2)nc(N)n3CCc2cccc3ccccc23)cc1.Cl | > 64 | > 64 | > 64 | < 4.70 | < 4.70 | > 64 | 64 | inactive | > 64 | > 64 | > 64 | > 64 | > 64 | > 64 |  | 
CCCCCc1ccc(C(=O)Nc2ccc3c(c2)nc(N)n3CCc2ccccn2)cc1.Cl | 32 | > 64 | 32 | 5.05 | 5.14 | 64 | 32 | inactive | 32 | 64 | > 64 | 32 | 32 | 32 | Non-toxic | Non-toxic
CCCCCc1ccc(C(=O)Nc2ccc3c(c2)nc(N)n3CCc2ccccc2OC)cc1.Cl | 16 | > 64 | 16 | 5.14 | 5.24 | 16 | 16 | inactive | 16 | 16 | > 64 | 16 | 8 | 16 | Non-toxic | Toxic
CCCCCc1ccc(C(=O)Nc2ccc3c(c2)nc(N)n3CCCc2ccccc2)cc1.Cl | 32 | > 64 | 32 | 5.28 | 5.33 | 16 | 16 | inactive | 16 | 32 | > 64 | 16 | 16 | 32 | Non-toxic | Non-toxic
CCCCCc1ccc(C(=O)Nc2ccc3c(c2)nc(N)n3CCc2ccc(OC)cc2)cc1.Cl | 16 | > 64 | 16 | 4.98 | 5.21 | 8 | 16 | inactive | 16 | 8 | > 64 | 8 | 16 | 16 | Toxic | Toxic
CCCCCc1ccc(C(=O)Nc2ccc3c(c2)nc(N)n3C(C)C)cc1.Cl | 16 | > 64 | 16 | 5.03 | 5.10 | 16 | 16 | inactive | 16 | 8 | 32 | 8 | 16 | 16 | Non-toxic | Non-toxic
CCCCCc1ccc(C(=O)Nc2ccc3c(c2)nc(N)n3CCCCc2c[nH]c3ccccc23)cc1.Cl | 32 | > 64 | 32 | 5.10 | 5.24 | 32 | 32 | inactive | 64 | 32 | > 64 | 32 | 64 | 64 | Toxic | Toxic
CCCCCc1ccc(C(=O)Nc2ccc3c(c2)nc(N)n3CCCCc2ccccc2)cc1.Cl | 32 | > 64 | 32 | 4.84 | 5.16 | 32 | 16 | inactive | 32 | 32 | > 64 | 16 | 32 | > 64 | Toxic | Toxic
CCCCCc1ccc(C(=O)Nc2ccc3c(c2)nc(N)n3CCc2c[nH]c3ccccc23)cc1.Cl | 16 | > 64 | 16 | 5.36 | 5.43 | 16 | 8 | inactive | 16 | 16 | > 64 | 16 | 8 | 16 | Toxic | Toxic
CCCCCc1ccc(C(=O)Nc2ccc3c(c2)nc(N)n3C)cc1.Cl | 32 | 64 | 64 | < 4.70 | < 4.70 | 16 | 32 | inactive | 16 | 16 | 64 | 32 | 64 | 8 |  | 
CCCCCc1ccc(C(=O)Nc2ccc3c(c2)nc(N)n3C2CCCC2)cc1.Cl | 16 | > 64 | 16 | 5.37 | 5.44 | 8 | 8 | inactive | 16 | 8 | > 64 | 8 | 16 | 8 | Non-toxic | Non-toxic
CCCCCCCCn1c(N)nc2cc(NC(=O)c3ccc(CCCCC)cc3)ccc21.Cl | 64 | > 64 | 64 | 5.17 | 5.03 | 64 | 64 | inactive | 64 | 64 | > 64 | > 64 | 32 | 64 | Non-toxic | Non-toxic
CCCCCc1ccc(C(=O)Nc2ccc3c(c2)nc(N)n3CCc2nc3ccccc3[nH]2)cc1.Cl | > 64 | > 64 | > 64 | < 4.70 | 5.15 | > 64 | 64 | inactive | > 64 | > 64 | > 64 | 64 | > 64 | > 64 | Non-toxic | 
